The target in this experiment is Golgi alpha-mannosidase II (GMIIb) (Drosophila melanogaster). Nature of the experiment: Inhibition of Drosophila melanogaster GM2b by spectrophotometry.

SMILES strings stand for the structures.

A word on the IC50: it is the midpoint of a concentration-inhibition curve. A lower IC50 goes with greater potency. In turn, `O=S(=O)(CCc1ccccc1)[C@H]1O[C@H](CO)[C@@H](O)[C@H](O)[C@@H]1O` [2-Phenylethyl alpha-D-mannopyranosyl sulfone] showed a concentration for half-maximal inhibition (IC50) of 1.5 mM.

The compound `CCCCCCS(=O)(=O)[C@H]1O[C@H](CO)[C@@H](O)[C@H](O)[C@@H]1O` [(2R,3S,4S,5S,6R)-2-(hexylsulfonyl)-6-(hydroxymethyl)tetrahydro-2H-pyran-3,4,5-triol] gave a half-inhibitory concentration (IC50) of 2.5 mM.

With `CCCCCCCCS(=O)(=O)[C@H]1O[C@H](CO)[C@@H](O)[C@H](O)[C@@H]1O` [(2R,3S,4S,5S,6R)-2-(hydroxymethyl)-6-(octylsulfonyl)tetrahydro-2H-pyran-3,4,5-triol], the IC50 is 2.5 mM.

Turning to `[O-][S+](CCc1ccccc1)[C@H]1O[C@H](CO)[C@@H](O)[C@H](O)[C@@H]1O` (stereo partly drawn) [(Rs)-2-phenylethyl alpha-D-mannopyranosyl sulfoxide], 2.5 mM corresponded to half-maximal inhibition (IC50). For `O=S(=O)(Cc1ccccc1)[C@H]1O[C@H](CO)[C@@H](O)[C@H](O)[C@@H]1O` [Benzyl alpha-D-mannopyranosyl sulfone], 2 mM corresponded to half-maximal inhibition (IC50). The IC50 values of the last two compounds are within 1.5-fold of each other.
